From patent US11739074B2, “Ras inhibitors” (Revolution Medicines, Inc., priority 2019, dated 2023)
Where two headings read alike, the source gives them in different places.

Tests used:
AsPC-1 (K-Ras G12D) [1] = experiment: Potency assay: pERK in AsPC-1 cells; type: cell-based; conditions: Homo sapiens
AsPC-1 (K-Ras G12D) [2] = experiment: CellTiter-Glo cell viability assay, AsPC-1; type: cell-based; conditions: Homo sapiens, ASPC1, 120 h
How it was run: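 Luminescent viability readout on day 5, plates first brought to room temperature for ~30 min; compounds added straight to plated RAS-mutant cells. Values expressed as percent of mean DMSO signal, curves fitted with a four-parameter logistic model.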

[3] = ASPC1, AsPC-1 cells, K-Ras G12D, read-out: pERK EC50 (AsPC-1 KRAS G12D)
[4] = AsPC-1, K-Ras G12D, 5-day treatment, read-out: AsPC-1 Cell Viability IC50
[5] = ASPC1, read-out: pERK EC50 (AsPC-1 KRAS G12D)
[6] = read-out: AsPC-1 Cell Viability IC50, AsPC-1, K-Ras G12D, 5-day treatment

Row | Structure (SMILES) | EC50 (AsPC-1 (K-Ras G12D) [1]; [3]) [µM] | IC50 (AsPC-1 (K-Ras G12D) [2]; [4]) [µM] | EC50 (AsPC-1 (K-Ras G12D) [1]; [5]) [µM] | IC50 (AsPC-1 (K-Ras G12D) [2]; [6]) [µM]
1 | CCn1c(-c2cccnc2[C@H](C)OC)c2c3cc(ccc31)-c1cc(O)cc(c1)C[C@H](NC(=O)[C@H](C(C)C)N(C)C(=O)N1CCN(C(=O)[C@H]3CN3)CC1=O)C(=O)N1CCC[C@H](N1)C(=O)OCC(C)(C)C2 [Compound 183] | < 5 | > 10 | – | –
2 | CCn1c(-c2cnccc2COC)c2c3cc(ccc31)-c1cccc(c1)C[C@H](NC(=O)[C@H](C(C)C)N(C)C(=O)CCN=C=NC1(COC)CC1)C(=O)N1CCC[C@H](N1)C(=O)OCC(C)(C)C2 [72 A and B] | < 5 | 1 to 10 | – | –
3 | CCn1c(-c2cccnc2[C@H](C)OC)c2c3cc(ccc31)-c1cc(O)cc(c1)C[C@H](NC(=O)[C@H](C(C)C)N(C)C(=O)C13CC(CN1C(=O)[C@H]1CN1)C3)C(=O)N1CCC[C@H](N1)C(=O)OCC(C)(C)C2 [Compound 164] | < 5 | 1 to 10 | – | –
4 | CCn1c(-c2cccnc2[C@H](C)OC)c2c3cc(ccc31)-c1cc(O)cc(c1)C[C@H](NC(=O)[C@H](C(C)C)N(C)C(=O)[C@]13C[C@H]1CCN3C(=O)[C@@H]1CN1)C(=O)N1CCC[C@H](N1)C(=O)OCC(C)(C)C2 [Compound 166] | < 5 | 1 to 10 | – | –
5 | CCn1c(-c2cccnc2[C@H](C)OC)c2c3cc(ccc31)-c1cc(O)cc(c1)C[C@H](NC(=O)[C@H](C(C)C)N(C)C(=O)[C@H]1C[C@H](NC(=O)[C@@H]3CN3)C1)C(=O)N1CCC[C@H](N1)C(=O)OCC(C)(C)C2 [Compound 167] | < 5 | 1 to 10 | – | –
6 | CCn1c(-c2cccnc2[C@H](C)OC)c2c3cc(ccc31)-c1cc(O)cc(c1)C[C@H](NC(=O)[C@H](C(C)C)N(C)C(=O)CN(C)S(=O)(=O)[C@@H]1CN1C)C(=O)N1CCC[C@H](N1)C(=O)OCC(C)(C)C2 (single isomer, unassigned) [Compound 92] | < 5 | 1 to 10 | – | –
7 | CCn1c(-c2cccnc2[C@H](C)OC)c2c3cc(ccc31)-c1cc(O)cc(c1)C[C@H](NC(=O)[C@H](C(C)C)N(C)C(=O)CN(C)C(=O)[C@@H]1CN1CCO)C(=O)N1CCC[C@H](N1)C(=O)OCC(C)(C)C2 (stereo partly drawn) [Compound 162] | – | – | < 5 | 1 to 10
8 | CCn1c(-c2cccnc2[C@H](C)OC)c2c3cc(ccc31)-c1cc(O)cc(c1)C[C@H](NC(=O)[C@H](C(C)C)N(C)C(=O)[C@H]1CCN1C(=O)[C@H]1CN1)C(=O)N1CCC[C@H](N1)C(=O)OCC(C)(C)C2 [Compound 158] | < 5 | 1 to 10 | – | –
9 | CCn1c(-c2cccnc2[C@H](C)OC)c2c3cc(ccc31)-c1cc(O)cc(c1)C[C@H](NC(=O)[C@H](C(C)C)N1CCC3(CCN(C(=O)[C@@H]4CN4)C3)C1=O)C(=O)N1CCC[C@H](N1)C(=O)OCC(C)(C)C2 (stereo partly drawn) [Compound 113] | < 5 | 1 to 10 | – | –
10 | CCn1c(-c2cccnc2[C@H](C)OC)c2c3cc(ccc31)-c1cc(O)cc(c1)C[C@H](NC(=O)[C@H](C(C)C)N(C)C(=O)N1CC[C@H](N(C)C(=O)[C@@H]3CN3)C1)C(=O)N1CCC[C@H](N1)C(=O)OCC(C)(C)C2 [Compound 255] | < 5 | 1 to 10 | – | –
11 | CCn1c(-c2cccnc2[C@H](C)OC)c2c3cc(ccc31)-c1cc(O)cc(c1)C[C@H](NC(=O)[C@H](C(C)C)N(C)C(=O)CC1CN(C(=O)[C@H]3CN3)C1)C(=O)N1CCC[C@H](N1)C(=O)OCC(C)(C)C2 [Compound 179] | < 5 | > 10 | – | –
12 | CCn1c(-c2cccnc2[C@H](C)OC)c2c3cc(ccc31)-c1csc(n1)C[C@H](NC(=O)[C@H](C(C)C)N(C)C(=O)N1CC(N(C)C(=O)[C@@H]3CN3)C1)C(=O)N1CCC[C@H](N1)C(=O)OCC(C)(C)C2 [Compound 219] | < 5 | 1 to 10 | – | –
13 | CCn1c(-c2cccnc2[C@H](C)OC)c2c3cc(ccc31)-c1cccc(c1)C[C@H](NC(=O)[C@H](C(C)C)N(C)C(=O)[C@H]1C[C@H](N=C=NCCOC)C1)C(=O)N1CCC[C@H](N1)C(=O)OCC(C)(C)C2 [Compound 78] | < 5 | 1 to 10 | – | –
14 | CCn1c(-c2cccnc2[C@H](C)OC)c2c3cc(ccc31)-c1cc(O)cc(c1)C[C@H](NC(=O)[C@H](C(C)C)N(C)C(=O)N1CCN(C(=O)[C@@H]3CN3)CC1=O)C(=O)N1CCC[C@H](N1)C(=O)OCC(C)(C)C2 [Compound 205] | < 5 | > 10 | – | –
15 | CCn1c(-c2cccnc2[C@H](C)OC)c2c3cc(ccc31)-c1cc(O)cc(c1)C[C@H](NC(=O)[C@H](C(C)C)N(C)C(=O)CN(C)C(=O)[C@@H]1CN1CC(=O)N(C)C)C(=O)N1CCC[C@H](N1)C(=O)OCC(C)(C)C2 (stereo partly drawn) [Compound 271] | – | – | < 5 | > 10
16 | CCn1c(-c2cnccc2COC)c2c3cc(ccc31)-c1cc(O)cc(c1)C[C@H](NC(=O)[C@H](C(C)C)N(C)C(=O)CCNC1=NCCO1)C(=O)N1CCC[C@H](N1)C(=O)OCC(C)(C)C2 [Compound 120] | < 5 | 1 to 10 | – | –
17 | CCn1c(-c2cccnc2[C@H](C)OC)c2c3cc(ccc31)-c1cc(O)cc(c1)C[C@H](NC(=O)[C@H](C(C)C)N(C)C(=O)[C@H]1CCCCN(C(=O)[C@H]3CN3)C1)C(=O)N1CCC[C@H](N1)C(=O)OCC(C)(C)C2 [Compound 247] | < 5 | 1 to 10 | – | –
18 | CCn1c(-c2cccnc2[C@H](C)OC)c2c3cc(ccc31)-c1cc(O)cc(c1)C[C@H](NC(=O)[C@H](C(C)C)N(C)C(=O)CN(C)C(=O)[C@@H]1CN1CC1COC1)C(=O)N1CCC[C@H](N1)C(=O)OCC(C)(C)C2 (stereo partly drawn) [Compound 278] | – | – | < 5 | 1 to 10
19 | CCn1c(-c2cccnc2[C@H](C)OC)c2c3cc(ccc31)-c1cc(O)cc(c1)C[C@H](NC(=O)[C@H](C(C)C)N(C)C(=O)[C@H]1C[C@H]3CC[C@@H](C1)N3C(=O)[C@H]1CN1)C(=O)N1CCC[C@H](N1)C(=O)OCC(C)(C)C2 [Compound 245] | < 5 | 1 to 10 | – | –
20 | CCn1c(-c2cccnc2[C@H](C)OC)c2c3cc(ccc31)-c1cc(O)cc(c1)C[C@H](NC(=O)[C@H](C(C)C)N(C)C(=O)CN(C)S(=O)(=O)[C@H]1CN1C)C(=O)N1CCC[C@H](N1)C(=O)OCC(C)(C)C2 (single isomer, unassigned) [Compound 91] | < 5 | 1 to 10 | – | –
21 | CCn1c(-c2cnccc2COC)c2c3cc(ccc31)-c1cc(O)cc(c1)C[C@H](NC(=O)[C@H](C(C)C)N(C)C(=O)CN(C)C(=O)[C@H]1N[C@H]1c1ccc(OC)cc1)C(=O)N1CCC[C@H](N1)C(=O)OCC(C)(C)C2 [Compound 93] | – | – | < 5 | > 10
22 | CCn1c(-c2cccnc2[C@H](C)OC)c2c3cc(ccc31)-c1cc(O)cc(c1)C[C@H](NC(=O)[C@H](C(C)C)N1CC[C@]3(CCN(C(=O)[C@@H]4N[C@@H]4C4CC4)C3)C1=O)C(=O)N1CCC[C@H](N1)C(=O)OCC(C)(C)C2 [Compound 305] | < 5 | 0.1 to 1 | – | –
23 | CCn1c(-c2cccnc2[C@H](C)OC)c2c3cc(ccc31)-c1cc(O)cc(c1)C[C@H](NC(=O)[C@H](C(C)C)N(C)C(=O)[C@H]1CCN1C(=O)[C@@H]1CN1)C(=O)N1CCC[C@H](N1)C(=O)OCC(C)(C)C2 [Compound 157] | < 5 | 1 to 10 | – | –
24 | CCn1c(-c2cccnc2[C@H](C)OC)c2c3cc(ccc31)-c1cc(O)cc(c1)C[C@H](NC(=O)[C@H](C1CCCC1)N(C)C(=O)CN(C)C(=O)[C@@H]1N[C@@H]1C1(F)CC1)C(=O)N1CCC[C@H](N1)C(=O)OCC(C)(C)C2 [Compound 314] | < 5 | 0.1 to 1 | – | –
25 | CCn1c(-c2cccnc2[C@H](C)OC)c2c3cc(ccc31)-c1cc(O)cc(c1)C[C@H](NC(=O)[C@H](C(C)C)N(C)C(=O)C1CCN(C(=O)[C@@H]3CN3)CC1)C(=O)N1CCC[C@H](N1)C(=O)OCC(C)(C)C2 [Compound 89] | < 5 | > 10 | – | –
26 | CCn1c(-c2cccnc2[C@H](C)OC)c2c3cc(ccc31)-c1cccc(c1)C[C@H](NC(=O)[C@H](C(C)C)N(C)C(=O)CCN=C=NCCOC)C(=O)N1CCC[C@H](N1)C(=O)OCC(C)(C)C2 [Compound 74] | < 5 | 1 to 10 | – | –
27 | CCn1c(-c2cnccc2COC)c2c3cc(ccc31)-c1cc(O)cc(c1)C[C@H](NC(=O)[C@H](C(C)C)N(C)C(=O)CN(C)C(=O)[C@H]1N[C@H]1C1CC1)C(=O)N1CCC[C@H](N1)C(=O)OCC(C)(C)C2 [Compound 104] | – | – | < 5 | 1 to 10
28 | CCn1c(-c2cccnc2[C@H](C)OC)c2c3cc(ccc31)-c1cc(O)cc(c1)C[C@H](NC(=O)[C@H](C(C)C)N(C)C(=O)CN(C)C(=O)[C@H]1CN1CCCN1CCCC1=O)C(=O)N1CCC[C@H](N1)C(=O)OCC(C)(C)C2 (stereo partly drawn) [Example 268, (2R)—N-(2-(((2S)-1-(((6^3S,4S)-1^1-ethyl-2^5-hydroxy-1^2-(2-((S)-1-methoxyethyl)pyridin-3-yl)-10,10-dimethyl-5,7-dioxo-6^1,6^2,6^3,6^4,6^5,6^6-hexahydro-1^1H-8-oxa-1(5,3)-indola-6(1,3)-pyridazina-2(1,3)-benzenacycloundecaphane-4-yl)amino)-3-methyl-1-oxobutan-2-yl)(methyl)amino)-2-oxoethyl)-N-methyl-1-(3-(2-oxopyrrolidin-1-yl)propyl)aziridine-2-carboxamide] | – | – | < 5 | 1 to 10
29 | CCn1c(-c2cccnc2[C@H](C)OC)c2c3cc(ccc31)-c1cc(O)cc(c1)C[C@H](NC(=O)[C@H](C(C)C)N(C)C(=O)CN(C)C(=O)[C@H]1CN1C1COC1)C(=O)N1CCC[C@H](N1)C(=O)OCC(C)(C)C2 (stereo partly drawn) [Compound 275] | – | – | < 5 | 1 to 10
30 | CCn1c(-c2cccnc2[C@H](C)OC)c2c3cc(ccc31)-c1cc(O)cc(c1)C[C@H](NC(=O)[C@H](C(C)C)N1CC[C@@H](NC(=O)[C@@H]3CN3)C1=O)C(=O)N1CCC[C@H](N1)C(=O)OCC(C)(C)C2 [Compound 129] | < 5 | 1 to 10 | – | –
